According to ChEMBL document CHEMBL1139370, “Discovery of 1-[9-(4-chlorophenyl)-8-(2-chlorophenyl)-9H-purin-6-yl]-4-ethylaminopiperidine-4-carboxylic acid amide hydrochloride (CP-945,598), a novel, potent, and selective cannabinoid type 1 receptor antagonist” (J Med Chem, 2009):
Active and inactive are the calls of the source. No cut-off for these calls is given here.

What was measured:
[1] = Induction of P-gp-mediated efflux in mdr1a/1b knockout mouse model
Rattus norvegicus = test: Anorectic activity in Sprague-Dawley rat assessed as reduction in food intake at 10 mg/kg, po measured at 10 mins interval for 2 hrs by fast-induced refeeding assay relative to control; format: functional; parameters: scale not given: the % may be the effect or the level left
[2] = Thermodynamic solubility in 0.1 M phosphate buffered saline at pH 6.5 by reversed phase HPLC; format: physicochemical; details: buffer
[3] = Inhibition of P-gp assessed as ATP turnover at […] by cell-based ATPase assay
Mus musculus [4] = test: Reversal of CP-55940-induced locomotor activity in ICR mouse at 10 mg/kg, sc pretreated 15 mins before CP-55940 challenge measured 25 mins post challenge; format: functional, organism-based; parameters: dose 10 mg/kg
[5] = Metabolic stability in human liver microsomes assessed as intrinsic clearance; format: ADME, Microsome
Mus musculus [6] = test: Reversal of CP-55940-induced hypothermia in ICR mouse at 10 mg/kg, sc pretreated 15 mins before CP-55940 challenge measured 65 mins post challenge; format: functional; details: route subcutaneous
Mus musculus [7] = test: Reversal of CP-55940-induced analgesia in ICR mouse at 10 mg/kg, sc pretreated 15 mins before CP-55940 challenge measured 45 mins post challenge by hot plate method; format: functional; details: route subcutaneous
[8] = Thermodynamic solubility in USP simulated gastric fluid at pH 1.2 by reversed phase HPLC; format: physicochemical; details: simulated gi fluid
[9] = Metabolic stability in rat liver microsomes assessed as intrinsic clearance; format: ADME, Microsome
Mus musculus [10] = test: Reversal of CP-55940-induced catalepsy in ICR mouse at 10 mg/kg, sc pretreated 15 mins before CP-55940 challenge measured 90 mins post challenge; format: functional, organism-based; parameters: dose 10 mg/kg
[11] = Inhibition of P-gp by cell-based calcein-acetoxymethyl ester assay
Cannabinoid receptor 1 [12] = biological target: Cannabinoid receptor 1 (Rattus norvegicus, UniProt P20272); test: Displacement of [3H]SR141716A from CB1 receptor in rat brain; format: tissue-based
[13] = Lipophilicity, log D of the compound; format: physicochemical; details: octanol/water
[14] = biological target: Voltage-gated inwardly rectifying potassium channel KCNH2 (Homo sapiens, UniProt Q12809); test: Inhibition of human ERG
Cannabinoid receptor 1 [15] = biological target: T1, Cannabinoid receptor 1 (Homo sapiens, UniProt P21554); test: Antagonist activity against human CB1 receptor expressed in CHO-K1 cells by [35S]GTPgamma binding assay; format: functional, cell-based
Cannabinoid receptor 1 [16] = biological target: T1, Cannabinoid receptor 1; test: biochemical; format: cell-based, HEK293

T1 sequence (P21554 whole entry): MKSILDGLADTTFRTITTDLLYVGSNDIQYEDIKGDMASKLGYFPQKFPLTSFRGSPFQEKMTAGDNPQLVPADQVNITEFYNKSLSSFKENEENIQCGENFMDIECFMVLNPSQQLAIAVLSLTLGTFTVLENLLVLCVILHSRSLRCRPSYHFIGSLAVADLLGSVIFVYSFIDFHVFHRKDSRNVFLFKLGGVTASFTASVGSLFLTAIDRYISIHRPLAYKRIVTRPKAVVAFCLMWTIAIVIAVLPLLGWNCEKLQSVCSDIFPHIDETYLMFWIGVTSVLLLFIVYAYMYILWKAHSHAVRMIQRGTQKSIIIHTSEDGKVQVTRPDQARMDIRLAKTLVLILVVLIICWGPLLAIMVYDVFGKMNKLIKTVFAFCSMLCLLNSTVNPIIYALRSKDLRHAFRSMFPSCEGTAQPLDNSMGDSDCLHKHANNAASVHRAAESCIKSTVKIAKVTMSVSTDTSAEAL
Sequence of Voltage-gated inwardly rectifying potassium channel KCNH2 (Q12809 whole entry): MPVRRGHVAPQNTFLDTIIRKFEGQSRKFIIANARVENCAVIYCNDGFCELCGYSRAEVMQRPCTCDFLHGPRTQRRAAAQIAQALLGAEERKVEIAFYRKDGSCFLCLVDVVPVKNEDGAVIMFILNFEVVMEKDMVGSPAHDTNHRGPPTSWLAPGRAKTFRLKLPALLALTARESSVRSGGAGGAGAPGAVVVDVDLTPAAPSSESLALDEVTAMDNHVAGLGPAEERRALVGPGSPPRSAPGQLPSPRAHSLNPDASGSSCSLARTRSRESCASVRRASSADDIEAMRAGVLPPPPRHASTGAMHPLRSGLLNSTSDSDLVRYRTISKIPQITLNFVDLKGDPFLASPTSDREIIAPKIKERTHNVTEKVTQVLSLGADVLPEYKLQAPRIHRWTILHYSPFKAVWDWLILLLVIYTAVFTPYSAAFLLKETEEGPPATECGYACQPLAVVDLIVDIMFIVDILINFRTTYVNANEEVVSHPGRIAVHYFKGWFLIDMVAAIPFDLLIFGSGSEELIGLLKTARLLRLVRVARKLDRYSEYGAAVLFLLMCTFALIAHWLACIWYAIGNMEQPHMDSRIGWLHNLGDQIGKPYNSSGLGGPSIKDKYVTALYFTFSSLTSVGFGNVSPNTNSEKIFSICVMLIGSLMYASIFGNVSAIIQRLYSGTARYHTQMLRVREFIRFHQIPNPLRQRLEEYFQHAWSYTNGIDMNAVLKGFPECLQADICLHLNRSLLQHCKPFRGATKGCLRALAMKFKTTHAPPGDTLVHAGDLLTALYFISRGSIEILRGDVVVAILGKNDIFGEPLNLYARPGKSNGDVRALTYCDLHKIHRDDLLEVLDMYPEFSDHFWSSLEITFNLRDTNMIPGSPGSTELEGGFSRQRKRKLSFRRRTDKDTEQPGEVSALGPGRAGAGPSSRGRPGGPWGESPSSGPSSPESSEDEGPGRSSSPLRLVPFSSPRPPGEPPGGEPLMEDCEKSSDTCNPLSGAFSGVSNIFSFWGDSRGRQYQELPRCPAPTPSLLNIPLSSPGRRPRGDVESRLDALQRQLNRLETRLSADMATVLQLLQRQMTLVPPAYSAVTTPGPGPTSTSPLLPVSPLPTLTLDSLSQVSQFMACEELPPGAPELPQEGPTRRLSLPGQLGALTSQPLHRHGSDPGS
Sequence of Cannabinoid receptor 1 (Rattus norvegicus, UniProt P20272) (P20272 whole entry): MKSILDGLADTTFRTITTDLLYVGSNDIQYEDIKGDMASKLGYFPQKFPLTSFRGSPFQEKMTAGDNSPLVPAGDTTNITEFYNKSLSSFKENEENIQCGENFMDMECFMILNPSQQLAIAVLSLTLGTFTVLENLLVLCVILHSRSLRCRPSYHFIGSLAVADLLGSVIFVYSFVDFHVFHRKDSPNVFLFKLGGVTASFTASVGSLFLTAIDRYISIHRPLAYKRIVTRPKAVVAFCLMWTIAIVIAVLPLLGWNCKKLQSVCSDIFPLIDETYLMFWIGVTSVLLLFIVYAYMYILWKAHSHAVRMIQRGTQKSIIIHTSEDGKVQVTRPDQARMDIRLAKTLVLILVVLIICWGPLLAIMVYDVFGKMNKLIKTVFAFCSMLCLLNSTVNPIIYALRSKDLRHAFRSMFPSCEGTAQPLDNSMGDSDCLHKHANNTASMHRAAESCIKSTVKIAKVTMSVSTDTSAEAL

| Thermodynamic solubility [2] | CLint scaled [5] | Thermodynamic solubility [8] | CLint scaled [9] | Ki (Cannabinoid receptor 1 [12]) | logD [13] | Ki (Cannabinoid receptor 1 [15]) | Ki (Cannabinoid receptor 1 [16]) | SMILES | Activity [1] | Activity (Rattus norvegicus) | Activity [3] | Activity (Mus musculus [4]) | Activity (Mus musculus [6]) | Activity (Mus musculus [7]) | Activity (Mus musculus [10]) | IC50 [11] | IC50 [14] |
| --- | --- | --- | --- | --- | --- | --- | --- | --- | --- | --- | --- | --- | --- | --- | --- | --- | --- |
| 1.4 ugA/ml | 1700 mL/min/kg | 161 ugA/ml | 4100 mL/min/kg | 3.6 nM | 5.3 | 1.7 nM | 7.4 nM | Clc1ccc(-n2c(-c3ccc(Cl)cc3Cl)nc3c(NN4CCCCC4)ncnc32)cc1 | – | – | – | – | – | – | – | – | 2700 nM |
| < 0.1 ugA/ml | 28000 mL/min/kg | 4.1 ugA/ml | 24000 mL/min/kg | 12 nM | 6.3 | 1.5 nM | 7.1 nM | Clc1ccc(-n2c(-c3ccc(Cl)cc3Cl)nc3c(NC4CCCCC4)ncnc32)cc1 | – | – | – | – | – | – | – | – | – |

Second part, the compound before the results:

| SMILES | Thermodynamic solubility [2] | CLint scaled [5] | Thermodynamic solubility [8] | CLint scaled [9] | Ki (Cannabinoid receptor 1 [12]) | logD [13] | Ki (Cannabinoid receptor 1 [15]) | Ki (Cannabinoid receptor 1 [16]) | Activity [1] | Activity (Rattus norvegicus) | Activity [3] | Activity (Mus musculus [4]) | Activity (Mus musculus [6]) | Activity (Mus musculus [7]) | Activity (Mus musculus [10]) | IC50 [11] | IC50 [14] |
| --- | --- | --- | --- | --- | --- | --- | --- | --- | --- | --- | --- | --- | --- | --- | --- | --- | --- |
| CCNC1(C(N)=O)CCN(c2ncnc3c2nc(-c2ccccc2Cl)n3-c2ccc(Cl)cc2)CC1 [OTENABANT] | 1.3 ugA/ml | 740 mL/min/kg | 291 ugA/ml | 1200 mL/min/kg | 2.8 nM | 4 | – | – | Active | 54% | inactive | Active | 73% | 85% | Active | 15 µM | > 3000 nM |
| CN1CCN(c2ncnc3c2nc(-c2ccc(Cl)cc2Cl)n3-c2ccc(Cl)cc2)CC1 | 0.7 ugA/ml | 740 mL/min/kg | 4930 ugA/ml | 5900 mL/min/kg | 5.9 nM | 4.8 | 1.5 nM | 5.2 nM | – | 25% | – | – | 4% | 74% | – | – | 350 nM |
| Clc1ccc(-n2c(-c3ccccc3Cl)nc3c(N4CCCCC4)ncnc32)cc1 | < 0.1 µgA/ml | 3100 mL/min/kg | 8.8 ugA/ml | 8600 mL/min/kg | 2.1 nM | 5.4 | 1.1 nM | 2.3 nM | – | – | – | – | – | – | – | – | – |
| Cc1c(C(=O)NN2CCCCC2)nn(-c2ccc(Cl)cc2Cl)c1-c1ccc(Cl)cc1 [RIMONABANT] | – | – | – | 9000 mL/min/kg | – | – | – | – | – | – | – | – | – | – | – | – | – |
| CN1CCN(c2ncnc3c2nc(-c2ccccc2Cl)n3-c2ccc(Cl)cc2)CC1 | 0.33 ugA/ml | 300 mL/min/kg | 1290 ugA/ml | 1500 mL/min/kg | 24 nM | 4.1 | – | – | – | – | – | – | – | – | – | – | 630 nM |
| Clc1ccc(-n2c(-c3ccc(Cl)cc3Cl)nc3c(N4CCCCC4)ncnc32)cc1 | < 0.1 ugA/ml | 28000 mL/min/kg | 3.5 ugA/ml | 77000 mL/min/kg | 4.2 nM | 5.9 | 1.7 nM | 6.1 nM | – | 6% | – | – | 29% | 72% | – | – | > 3000 nM |
